Test results from ChEMBL document CHEMBL1143762, “CP5484, a novel quaternary carbapenem with potent anti-MRSA activity and reduced toxicity” (Bioorg Med Chem, 2007).
Values after ≈ are worked out from the molar mass of the structure shown.

Assays:
[1] = test system: Staphylococcus aureus; test: Antibacterial activity against Staphylococcus aureus 209P JC1; format: functional
[2] = test system: Staphylococcus aureus; test: Antibacterial activity against methicillin-resistant Staphylococcus aureus M126; format: functional
[3] = test system: Staphylococcus aureus; test: Antibacterial activity against carbapenem-resistant Staphylococcus aureus M126 HR; format: functional
[4] = test system: Mus musculus; test: Acute toxicity in iv dosed ICR mouse assessed as mortality after 24 hrs; format: organism-based; conditions: in vivo
[5] = test system: Staphylococcus aureus; test: Antibacterial activity against penicillin-resistant Staphylococcus aureus PRC9; format: functional
[6] = test system: Escherichia coli; test: Antibacterial activity against Escherichia coli NIHJ JC2; format: functional
[7] = test system: Klebsiella pneumoniae; test: Antibacterial activity against Klebsiella pneumoniae PCI602; format: functional
[8] = test system: Moraxella catarrhalis; test: Antibacterial activity against Moraxella catarrhalis W-0500; format: functional
[9] = test system: Haemophilus influenzae; test: Antibacterial activity against beta lactamase positive amoxicillin/clavulanic acid-resistant Haemophilus influenzae PRC44; format: functional
[10] = test system: Pseudomonas aeruginosa; test: Antibacterial activity against Pseudomonas aeruginosa PAO1; format: functional
[11] = test system: Staphylococcus aureus; test: Antibacterial activity against methicillin-resistant Staphylococcus aureus; format: functional
[12] = test system: Staphylococcus aureus; test: Antibacterial activity against methicillin-resistant Staphylococcus aureus MF126; format: functional
[13] = test system: Staphylococcus aureus; test: Protective effect against methicillin-resistant Staphylococcus aureus MF126 systemic infection in ICR mouse dosed sc twice a day; format: functional
[14] = Half life in mouse at 20 mg/kg, iv administered with 10 mg/kg cilastatin; format: ADME, organism-based; conditions: in vivo
[15] = AUC (0-infinity) in mouse at 20 mg/kg, iv administered with 10 mg/kg cilastatin; format: ADME, organism-based; parameters: dose 20 mg/kg, route intravenous, time infinity; conditions: plasma
[16] = Total clearance in mouse at 20 mg/kg, iv administered with 10 mg/kg cilastatin; format: ADME, organism-based; conditions: in vivo
[17] = Volume of distribution at steady state in mouse at 20 mg/kg, iv administered with 10 mg/kg cilastatin; format: ADME, organism-based; conditions: in vivo, read-out: Vss
[18] = Urinary excretion of compound in mouse at 20 mg/kg, iv administered with 10 mg/kg cilastatin; format: ADME, organism-based; conditions: urine, read-out: Activity
[19] = test system: Serum; test: Protein binding in mouse serum by equilibrium dialysis method; format: ADME, cell-free
[20] = test system: Serum; test: Protein binding in human serum by equilibrium dialysis method; format: ADME, cell-free

SMILES | MIC [1] | MIC [2] | MIC [3] | MLD [4] | other results
CSc1c2sc(C3=C(C(=O)[O-])N4C(=O)[C@H]([C@@H](C)O)[C@H]4[C@H]3C)cn2c[n+]1[C@@H]1CN[C@H](C(=O)N(C)C)C1 | 0.025 µg/mL (≈ 0.0481 µM) | 3.13 µg/mL (≈ 6.02 µM) | 6.25 µg/mL (≈ 12 µM) |  | 
CSc1c2sc(C3=C(C(=O)[O-])N4C(=O)[C@H]([C@@H](C)O)[C@H]4[C@H]3C)cn2c[n+]1C[C@H](C)CN | < 0.006 µg/mL | 0.78 µg/mL (≈ 1.73 µM) | 1.56 µg/mL (≈ 3.46 µM) | 500 mg/kg | 
CSc1c2sc(C3=C(C(=O)[O-])N4C(=O)[C@H]([C@@H](C)O)[C@H]4[C@H]3C)cn2c[n+]1C1CCNCC1 | 0.013 µg/mL (≈ 0.0281 µM) | 1.56 µg/mL (≈ 3.37 µM) | 3.13 µg/mL (≈ 6.77 µM) |  | 
CSc1c2sc(C3=C(C(=O)[O-])N4C(=O)[C@H]([C@@H](C)O)[C@H]4[C@H]3C)cn2c[n+]1C[C@@H](CN)OCF | < 0.006 µg/mL | 0.78 µg/mL (≈ 1.61 µM) | 3.13 µg/mL (≈ 6.46 µM) | 500 mg/kg | 
CSc1c2sc(C3=C(C(=O)[O-])N4C(=O)[C@H]([C@@H](C)O)[C@H]4[C@H]3C)cn2c[n+]1CCCCCCN | < 0.006 µg/mL | 0.78 µg/mL (≈ 1.63 µM) | 1.56 µg/mL (≈ 3.26 µM) | 250 mg/kg | 
CSc1c2sc(C3=C(C(=O)[O-])N4C(=O)[C@H]([C@@H](C)O)[C@H]4[C@H]3C)cn2c[n+]1[C@H]1CCN(C(C)=N)C1 | < 0.006 µg/mL | 1.56 µg/mL (≈ 3.19 µM) | 3.13 µg/mL (≈ 6.39 µM) |  | 
CO[C@H](CN)C[n+]1cn2cc(C3=C(C(=O)[O-])N4C(=O)[C@H]([C@@H](C)O)[C@H]4[C@H]3C)sc2c1SC | < 0.006 µg/mL | 0.78 µg/mL (≈ 1.67 µM) | 3.13 µg/mL (≈ 6.71 µM) | > 500 mg/kg | 
CSc1c2sc(C3=C(C(=O)[O-])N4C(=O)[C@H]([C@@H](C)O)[C@H]4[C@H]3C)cn2c[n+]1C[C@H](O)CN | < 0.006 µg/mL | 0.78 µg/mL (≈ 1.72 µM) | 1.56 µg/mL (≈ 3.45 µM) | > 500 mg/kg | MIC [5]: 0.05 µg/mL (≈ 0.11 µM); MIC [6]: 0.05 µg/mL (≈ 0.11 µM); MIC [7]: 0.1 µg/mL (≈ 0.221 µM); MIC [8]: 0.05 µg/mL (≈ 0.11 µM); MIC [9]: 0.78 µg/mL; MIC [10]: 6.25 µg/mL (≈ 13.8 µM); MIC50 [11]: 0.78 µg/mL (≈ 1.72 µM); MIC90 [11]: 1.56 µg/mL (≈ 3.45 µM); MIC [12]: 1.56 µg/mL (≈ 3.45 µM); ED50 [13]: 0.039 mg; half-life [14]: 13.4 min; AUC(0-inf) [15]: 12600 ng·h/mL; clearance [16]: 26.8 mL/min/kg; Vd [17]: 0.34 L/kg; dose excreted [18]: 41.9%; Activity [19]: 16%; Activity [20]: 12.2%
CSc1c2sc(C3=C(C(=O)[O-])N4C(=O)[C@H]([C@@H](C)O)[C@H]4[C@H]3C)cn2c[n+]1CCCCN | < 0.006 µg/mL | 0.78 µg/mL (≈ 1.73 µM) | 1.56 µg/mL (≈ 3.46 µM) |  | 
CSc1c2sc(C3=C(C(=O)[O-])N4C(=O)[C@H]([C@@H](C)O)[C@H]4[C@H]3C)cn2c[n+]1[C@@H]1CN[C@H](CO)C1 | < 0.006 µg/mL | 0.78 µg/mL (≈ 1.63 µM) | 3.13 µg/mL (≈ 6.54 µM) |  | 
CSc1c2sc(C3=C(C(=O)[O-])N4C(=O)[C@H]([C@@H](C)O)[C@H]4[C@H]3C)cn2c[n+]1CCN | < 0.006 µg/mL | 0.78 µg/mL (≈ 1.85 µM) | 3.13 µg/mL (≈ 7.41 µM) | 500 mg/kg | 
CSc1c2sc(C3=C(C(=O)[O-])N4C(=O)[C@H]([C@@H](C)O)[C@H]4[C@H]3C)cn2c[n+]1CCSCCN | < 0.006 µg/mL | 0.39 µg/mL (≈ 0.808 µM) | 1.56 µg/mL (≈ 3.23 µM) |  | 
CSc1c2sc(C3=C(C(=O)[O-])N4C(=O)[C@H]([C@@H](C)O)[C@H]4[C@H]3C)cn2c[n+]1CCS(=O)(=O)CCN | < 0.006 µg/mL | 0.78 µg/mL (≈ 1.52 µM) | 3.13 µg/mL (≈ 6.08 µM) | > 500 mg/kg | 
C[C@@H](O)[C@H]1C(=O)N2C(C(=O)O)=C(SCCNC=N)C[C@H]12 [IMIPENEM ANHYDROUS] | 0.013 µg/mL (≈ 0.0434 µM) | 25 µg/mL (≈ 83.5 µM) | 100 µg/mL (≈ 334 µM) |  | MIC [5]: 0.39 µg/mL (≈ 1.3 µM); MIC [6]: 0.1 µg/mL (≈ 0.334 µM); MIC [7]: 0.39 µg/mL (≈ 1.3 µM); MIC [8]: 0.05 µg/mL (≈ 0.167 µM); MIC [9]: 3.13 µg/mL; MIC [10]: 1.56 µg/mL (≈ 5.21 µM)
COC(=O)[C@@H]1C[C@H]([n+]2cn3cc(C4=C(C(=O)[O-])N5C(=O)[C@H]([C@@H](C)O)[C@H]5[C@H]4C)sc3c2SC)CN1 | 0.013 µg/mL (≈ 0.0257 µM) | 1.56 µg/mL (≈ 3.08 µM) | 6.25 µg/mL (≈ 12.3 µM) |  | 
CSc1c2sc(C3=C(C(=O)[O-])N4C(=O)[C@H]([C@@H](C)O)[C@H]4[C@H]3C)cn2c[n+]1CCCN | < 0.006 µg/mL | 0.78 µg/mL (≈ 1.79 µM) | 1.56 µg/mL (≈ 3.57 µM) | 250 mg/kg | 
CSc1c2sc(C3=C(C(=O)[O-])N4C(=O)[C@H]([C@@H](C)O)[C@H]4[C@H]3C)cn2c[n+]1[C@@H]1CN[C@H](C(=O)O)C1 | 0.025 µg/mL (≈ 0.0508 µM) | 3.13 µg/mL (≈ 6.35 µM) | 6.25 µg/mL (≈ 12.7 µM) |  | 
CSc1c2sc(C3=C(C(=O)[O-])N4C(=O)[C@H]([C@@H](C)O)[C@H]4[C@H]3C)cn2c[n+]1Cc1cccc(CSC(=N)N)c1 | < 0.006 µg/mL | 0.39 µg/mL (≈ 0.699 µM) | 0.78 µg/mL (≈ 1.4 µM) | 250 mg/kg | 
CSc1c2sc(C3=C(C(=O)[O-])N4C(=O)[C@H]([C@@H](C)O)[C@H]4[C@H]3C)cn2c[n+]1[C@H]1CCNC1 | < 0.006 µg/mL | 0.78 µg/mL (≈ 1.74 µM) | 1.56 µg/mL (≈ 3.48 µM) | 500 mg/kg | 
CSc1c2sc(C3=C(C(=O)[O-])N4C(=O)[C@H]([C@@H](C)O)[C@H]4[C@H]3C)cn2c[n+]1CC(N)=O | < 0.006 µg/mL | 1.56 µg/mL (≈ 3.57 µM) | 3.13 µg/mL (≈ 7.17 µM) |  | 
CN[C@H](CC(C)C)C(=O)N[C@H]1C(=O)N[C@@H](CC(N)=O)C(=O)N[C@H]2C(=O)N[C@H]3C(=O)N[C@H](C(=O)N[C@H](C(=O)O)c4cc(O)cc(O)c4-c4cc3ccc4O)[C@H](O)c3ccc(c(Cl)c3)Oc3cc2cc(c3O[C@@H]2O[C@H](CO)[C@@H](O)[C@H](O)[C@H]2O[C@H]2C[C@](C)(N)[C@H](O)[C@H](C)O2)Oc2ccc(cc2Cl)[C@H]1O [VANCOMYCIN] | 0.78 µg/mL (≈ 0.538 µM) | 1.56 µg/mL (≈ 1.08 µM) | 1.56 µg/mL (≈ 1.08 µM) |  | MIC50 [11]: 1.56 µg/mL (≈ 1.08 µM); MIC90 [11]: 1.56 µg/mL (≈ 1.08 µM); MIC [12]: 0.78 µg/mL (≈ 0.538 µM); ED50 [13]: 0.18 mg
CSc1c2sc(C3=C(C(=O)[O-])N4C(=O)[C@H]([C@@H](C)O)[C@H]4[C@H]3C)cn2c[n+]1CCCNC(C)=N | < 0.006 µg/mL | 0.78 µg/mL (≈ 1.63 µM) | 3.13 µg/mL (≈ 6.55 µM) |  | 
CSc1c2sc(C3=C(C(=O)[O-])N4C(=O)[C@H]([C@@H](C)O)[C@H]4[C@H]3C)cn2c[n+]1CCCNC=N | < 0.006 µg/mL | 0.78 µg/mL (≈ 1.68 µM) | 3.13 µg/mL (≈ 6.75 µM) |  | 
CSc1c2sc(C3=C(C(=O)[O-])N4C(=O)[C@H]([C@@H](C)O)[C@H]4[C@H]3C)cn2c[n+]1C[C@@H]1CCCN1 | < 0.006 µg/mL | 0.78 µg/mL (≈ 1.69 µM) | 3.13 µg/mL (≈ 6.77 µM) |  | 
CSc1c2sc(C3=C(C(=O)[O-])N4C(=O)[C@H]([C@@H](C)O)[C@H]4[C@H]3C)cn2c[n+]1CCCSC(=N)N | < 0.006 µg/mL | 0.39 µg/mL (≈ 0.787 µM) | 1.56 µg/mL (≈ 3.15 µM) | 250 mg/kg | 
